What was measured:
[1] = tested on: ABUTH (Velvetleaf); assay: Postemergence herbicidal evaluation; format: in vivo, Abutilon theophrasti; details: for Herbicidal rating ABUTH: postemergence
Summary of the method: (§1)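 Visual 0-9 injury score (stand, vigor, malformation, size, chlorosis, appearance vs untreated) taken four to five weeks post-spray, averaged across repeat tests. Test plants about two weeks old; foliar spray of acetone/water (1:1) with 0.5% surfactant delivering ~0.0156-0.500 kg active/ha.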

[2] = tested on: GALAP (Galium); assay: Postemergence herbicidal evaluation; format: in vivo, Galium aparine; details: for Herbicidal rating GALAP: postemergence
Summary of the method: as §1

[3] = tested on: ECHCG (Barnyardgrass); assay: Postemergence herbicidal evaluation; format: in vivo, Echinochloa crus-galli; details: for Herbicidal rating ECHCG: postemergence
Summary of the method: as §1

[4] = tested on: SETVI (Foxtail, Green); assay: Postemergence herbicidal evaluation; format: in vivo, Setaria viridis; details: for Herbicidal rating SETVI: postemergence
Summary of the method: as §1

[5] = tested on: ORYSAT (Rice, Tebonnet); assay: Postemergence herbicidal evaluation; format: in vivo, Oryza sativa, (L.) Tebonnet; details: for Herbicidal rating ORYSAT: postemergence
Summary of the method: as §1

[6] = tested on: IPOHE (Morningglory, Ivyleaf); assay: Preemergence herbicidal evaluation; format: in vivo, Ipomoea hederacea; details: rated 4-5 weeks after treatment
Summary of the method: (§2)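 Scores use a 0–9 visual scale covering stand, vigor, malformation, size and chlorosis relative to controls, rated four to five weeks after treatment. Before emergence, soil-planted seeds were sprayed with compound in aqueous acetone at roughly 0.0156–0.500 kg/ha and held in the greenhouse.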

[7] = tested on: TRZAWR (Wheat, Winter, cv Riband); assay: Preemergence herbicidal evaluation; format: in vivo, Triticum aestivum; details: rated 4-5 weeks after treatment
Summary of the method: as §2

[8] = tested on: ZEAMX (Corn, Field); assay: Preemergence herbicidal evaluation; format: in vivo, Zea mays; details: rated 4-5 weeks after treatment
Summary of the method: as §2

[9] = tested on: ECHORC (Watergrass (Calif.)); assay: Preemergence weed control under flooded paddy conditions; format: in vivo, Echinochloa oryzoides; details: rated 3-4 weeks after treatment
Summary of the method: (§3)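 Herbicidal effect is scored visually on a 0-9 scale against an untreated control, three to four weeks after compounds are pipetted into the flood water (1.5 to 3 cm deep) over seeds planted in silt loam at 0.5 cm depth. Rates: about 0.0313 to 0.500 kg/ha.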

[10] = tested on: CYPIR (Rice Flatsedge); assay: as above; format: in vivo, Cyperus iria; details: rated 3-4 weeks after treatment
Summary of the method: as §3

[11] = tested on: MOOVA (Monochoria); assay: as above; format: in vivo, Monochoria vaginalis; details: rated 3-4 weeks after treatment
Summary of the method: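 Flooded-pot preemergence screen with silt loam and seeds in the upper 0.5 cm. Dose about 0.0313 to 0.500 kg/ha, delivered into flood water; visual 0-9 score after 3 to 4 weeks.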

[12] = rate 0.1250 kg/ha, rating scale 0-9
[13] = rate 0.2500 kg/ha, rating scale 0-9

CCOC(=O)CN1C(=O)C(C(=O)OC(C)(C)C)SC1=Nc1cc(-n2c(=O)cc(C(F)(F)F)n(C)c2=O)c(F)cc1Cl (centres unmarked) [Compound 167, 5-Carboxy-2-{{2-chloro-5-[3,6-dihydro-3-methyl-2,6-dioxo-4-(trifluoromethyl)-1(2H)-pyrimidinyl]-4-fluorophenyl}imino}-4-oxo-3-thiazolidineacetic acid, 5-tert-butyl ethyl ester]
Herbicidal rating ABUTH ([1]; rate 0.0156 kg/ha): 9.0 | Herbicidal rating ABUTH ([1]; rate 0.0313 kg/ha): 9.0 | Herbicidal rating ABUTH ([1]; rate 0.0625 kg/ha): 9.0 | Herbicidal rating ABUTH ([1]; rate 0.1250 kg/ha): 9.0 | Herbicidal rating GALAP ([2]; rate 0.0156 kg/ha): 2.0 | Herbicidal rating GALAP ([2]; rate 0.0313 kg/ha): 3.0 | Herbicidal rating GALAP ([2]; rate 0.0625 kg/ha): 4.0 | Herbicidal rating GALAP ([2]; rate 0.1250 kg/ha): 4.0 | Herbicidal rating ECHCG ([3]; rate 0.0156 kg/ha): 3.0 | Herbicidal rating ECHCG ([3]; rate 0.0313 kg/ha): 3.0 | Herbicidal rating ECHCG ([3]; rate 0.0625 kg/ha): 3.0 | Herbicidal rating ECHCG ([3]; rate 0.1250 kg/ha): 3.0 | Herbicidal rating SETVI ([4]; rate 0.0156 kg/ha): 2.0 | Herbicidal rating SETVI ([4]; rate 0.0313 kg/ha): 4.0 | Herbicidal rating SETVI ([4]; rate 0.0625 kg/ha): 9.0 | Herbicidal rating SETVI ([4]; rate 0.1250 kg/ha): 9.0 | Herbicidal rating ORYSAT ([5]; rate 0.0156 kg/ha): 3.0 | Herbicidal rating ORYSAT ([5]; rate 0.0313 kg/ha): 3.5 | Herbicidal rating ORYSAT ([5]; rate 0.0625 kg/ha): 3.5 | Herbicidal rating ORYSAT ([5]; rate 0.1250 kg/ha): 4.0 | Preemergence herbicidal rating IPOHE ([6]; 0.0156 kg/ha): 0.0 | Preemergence herbicidal rating IPOHE ([6]; 0.0313 kg/ha): 0.0 | Preemergence herbicidal rating IPOHE ([6]; 0.0625 kg/ha): 2.0 | Preemergence herbicidal rating IPOHE ([6]; 0.1250 kg/ha): 3.0 | Preemergence herbicidal rating IPOHE ([6]; 0.2500 kg/ha): 9.0 | Preemergence herbicidal rating IPOHE ([6]; 0.5000 kg/ha): 9.0 | Preemergence herbicidal rating TRZAWR ([7]; 0.0156 kg/ha): 0.0 | Preemergence herbicidal rating TRZAWR ([7]; 0.0313 kg/ha): 0.0 | Preemergence herbicidal rating TRZAWR ([7]; 0.0625 kg/ha): 1.0 | Preemergence herbicidal rating TRZAWR ([7]; 0.1250 kg/ha): 3.0 | Preemergence herbicidal rating TRZAWR ([7]; 0.2500 kg/ha): 4.0 | Preemergence herbicidal rating TRZAWR ([7]; 0.5000 kg/ha): 5.0 | Preemergence herbicidal rating ZEAMX ([8]; 0.0156 kg/ha): 0.0 | Preemergence herbicidal rating ZEAMX ([8]; 0.0313 kg/ha): 0.0 | Preemergence herbicidal rating ZEAMX ([8]; 0.0625 kg/ha): 3.0 | Preemergence herbicidal rating ZEAMX ([8]; 0.1250 kg/ha): 3.0 | Preemergence herbicidal rating ZEAMX ([8]; 0.2500 kg/ha): 6.0 | Preemergence herbicidal rating ZEAMX ([8]; 0.5000 kg/ha): 7.0 | herbicidal effect rating, ECHORC ([9]; 0.0313 kg/ha): 9.0 | herbicidal effect rating, ECHORC ([9]; 0.0625 kg/ha): 9.0 | herbicidal effect rating, ECHORC ([9]; 0.1250 kg/ha): 9.0 | herbicidal effect rating, ECHORC ([9]; 0.2500 kg/ha): 9.0 | herbicidal effect rating, CYPIR ([10]; 0.0313 kg/ha): 7.0 | herbicidal effect rating, CYPIR ([10]; 0.0625 kg/ha): 9.0 | herbicidal effect rating, CYPIR ([10]; 0.1250 kg/ha): 9.0 | herbicidal effect rating, CYPIR ([10]; 0.2500 kg/ha): 9.0 | herbicidal effect rating, MOOVA ([11]; 0.0313 kg/ha): 9.0 | herbicidal effect rating, MOOVA ([11]; 0.0625 kg/ha): 9.0 | herbicidal effect rating, MOOVA ([11]; 0.1250 kg/ha): 9.0 | herbicidal effect rating, MOOVA ([11]; 0.2500 kg/ha): 9.0

Cc1ccc(CN2C(=O)CSC2=Nc2cc(-n3c(=O)cc(C(F)(F)F)n(C)c3=O)c(F)cc2Cl)cc1Cl [Compound 149, 3-{4-Chloro-5-{[3-(3-chloro-4-methylbenzyl)-4-oxo-2-thiazolidinylidene]amino}-2-fluorophenyl}-1-methyl-6-(trifluoromethyl)-2,4(1H,3H)-pyrimidinedione]
Herbicidal rating ABUTH ([1]; rate 0.0156 kg/ha): 4.0 | Herbicidal rating ABUTH ([1]; rate 0.0313 kg/ha): 8.0 | Herbicidal rating ABUTH ([1]; rate 0.0625 kg/ha): 9.0 | Herbicidal rating GALAP ([2]; rate 0.0156 kg/ha): 0.0 | Herbicidal rating GALAP ([2]; rate 0.0313 kg/ha): 0.0 | Herbicidal rating GALAP ([2]; rate 0.0625 kg/ha): 2.0 | Herbicidal rating ECHCG ([3]; rate 0.0156 kg/ha): 0.0 | Herbicidal rating ECHCG ([3]; rate 0.0313 kg/ha): 0.0 | Herbicidal rating ECHCG ([3]; rate 0.0625 kg/ha): 0.0 | Herbicidal rating SETVI ([4]; rate 0.0156 kg/ha): 0.0 | Herbicidal rating SETVI ([4]; rate 0.0313 kg/ha): 0.0 | Herbicidal rating SETVI ([4]; rate 0.0625 kg/ha): 0.0 | Herbicidal rating ORYSAT ([5]; rate 0.0156 kg/ha): 0.5 | Herbicidal rating ORYSAT ([5]; rate 0.0313 kg/ha): 1.0 | Herbicidal rating ORYSAT ([5]; rate 0.0625 kg/ha): 1.0 | Preemergence herbicidal rating IPOHE [6, 12]: 0.0 | Preemergence herbicidal rating IPOHE [6, 13]: 2.0 | Preemergence herbicidal rating TRZAWR [7, 12]: 0.0 | Preemergence herbicidal rating TRZAWR [7, 13]: 2.0 | Preemergence herbicidal rating ZEAMX [8, 12]: 0.0 | Preemergence herbicidal rating ZEAMX [8, 13]: 2.0 | herbicidal effect rating, ECHORC ([9]; 0.0313 kg/ha): 2.0 | herbicidal effect rating, ECHORC ([9]; 0.0625 kg/ha): 3.0 | herbicidal effect rating, ECHORC ([9]; 0.1250 kg/ha): 6.0 | herbicidal effect rating, ECHORC ([9]; 0.2500 kg/ha): 7.0 | herbicidal effect rating, CYPIR ([10]; 0.0313 kg/ha): 3.0 | herbicidal effect rating, CYPIR ([10]; 0.0625 kg/ha): 4.0 | herbicidal effect rating, CYPIR ([10]; 0.1250 kg/ha): 7.0 | herbicidal effect rating, CYPIR ([10]; 0.2500 kg/ha): 4.0 | herbicidal effect rating, MOOVA ([11]; 0.0313 kg/ha): 5.0 | herbicidal effect rating, MOOVA ([11]; 0.0625 kg/ha): 7.0 | herbicidal effect rating, MOOVA ([11]; 0.1250 kg/ha): 7.0 | herbicidal effect rating, MOOVA ([11]; 0.2500 kg/ha): 7.0

COCCCN1C(=O)CSC1=Nc1cc(-n2c(=O)cc(C(F)(F)F)n(C)c2=O)c(F)cc1Cl [Compound 172, 3-{4-Chloro-2-fluoro-5-{[3-(3-methoxypropyl)-4-oxo-2-thiazolidinylidene]amino}phenyl}-1-methyl-6-(trifluoromethyl)-2,4(1H, 3H)-pyrimidinedione]
Postemergence herbicidal rating ABUTH ([1]; Rate 0.0313 kg/ha): 9.0 | Postemergence herbicidal rating ABUTH ([1]; Rate 0.0625 kg/ha): 9.0 | Postemergence herbicidal rating ABUTH ([1]; rate 0.0156 kg/ha): 9.0 | Postemergence herbicidal rating GALAP ([2]; Rate 0.0313 kg/ha): 4.0 | Postemergence herbicidal rating GALAP ([2]; Rate 0.0625 kg/ha): 7.0 | Postemergence herbicidal rating GALAP ([2]; rate 0.0156 kg/ha): 3.0 | Postemergence herbicidal rating ECHCG ([3]; Rate 0.0313 kg/ha): 3.0 | Postemergence herbicidal rating ECHCG ([3]; Rate 0.0625 kg/ha): 3.0 | Postemergence herbicidal rating ECHCG ([3]; rate 0.0156 kg/ha): 2.0 | Postemergence herbicidal rating SETVI ([4]; Rate 0.0313 kg/ha): 3.0 | Postemergence herbicidal rating SETVI ([4]; Rate 0.0625 kg/ha): 2.0 | Postemergence herbicidal rating SETVI ([4]; rate 0.0156 kg/ha): 2.0 | Postemergence herbicidal rating ORYSAT ([5]; Rate 0.0313 kg/ha): 3.5 | Postemergence herbicidal rating ORYSAT ([5]; Rate 0.0625 kg/ha): 4.0 | Postemergence herbicidal rating ORYSAT ([5]; rate 0.0156 kg/ha): 3.5 | Preemergence herbicidal rating IPOHE ([6]; 0.0156 kg/ha): 2.0 | Preemergence herbicidal rating IPOHE ([6]; 0.0313 kg/ha): 7.0 | Preemergence herbicidal rating IPOHE ([6]; 0.0625 kg/ha): 7.0 | Preemergence herbicidal rating IPOHE ([6]; 0.1250 kg/ha): 9.0 | Preemergence herbicidal rating IPOHE ([6]; 0.2500 kg/ha): 9.0 | Preemergence herbicidal rating TRZAWR ([7]; 0.0156 kg/ha): 2.0 | Preemergence herbicidal rating TRZAWR ([7]; 0.0313 kg/ha): 3.0 | Preemergence herbicidal rating TRZAWR ([7]; 0.0625 kg/ha): 7.0 | Preemergence herbicidal rating TRZAWR ([7]; 0.1250 kg/ha): 7.0 | Preemergence herbicidal rating TRZAWR ([7]; 0.2500 kg/ha): 9.0 | Preemergence herbicidal rating ZEAMX ([8]; 0.0156 kg/ha): 4.0 | Preemergence herbicidal rating ZEAMX ([8]; 0.0313 kg/ha): 7.0 | Preemergence herbicidal rating ZEAMX ([8]; 0.0625 kg/ha): 8.0 | Preemergence herbicidal rating ZEAMX ([8]; 0.1250 kg/ha): 9.0 | Preemergence herbicidal rating ZEAMX ([8]; 0.2500 kg/ha): 9.0 | herbicidal effect rating, ECHORC ([9]; 0.0313 kg/ha): 6.0 | herbicidal effect rating, ECHORC ([9]; 0.0625 kg/ha): 9.0 | herbicidal effect rating, ECHORC ([9]; 0.1250 kg/ha): 9.0 | herbicidal effect rating, ECHORC ([9]; 0.2500 kg/ha): 9.0 | herbicidal effect rating, CYPIR ([10]; 0.0313 kg/ha): 5.0 | herbicidal effect rating, CYPIR ([10]; 0.0625 kg/ha): 7.0 | herbicidal effect rating, CYPIR ([10]; 0.1250 kg/ha): 8.0 | herbicidal effect rating, CYPIR ([10]; 0.2500 kg/ha): 9.0 | herbicidal effect rating, MOOVA ([11]; 0.0313 kg/ha): 9.0 | herbicidal effect rating, MOOVA ([11]; 0.0625 kg/ha): 9.0 | herbicidal effect rating, MOOVA ([11]; 0.1250 kg/ha): 9.0 | herbicidal effect rating, MOOVA ([11]; 0.2500 kg/ha): 9.0
